In patent US8563542B2 (Cyclacel Limited, priority 2007, dated 2013):

Target: PLK1 (Homo sapiens, UniProt P53350)
Assay: PLK1 protein kinase assay (CDC25C phosphorylation, [γ-32P]-ATP)
Format: biochemical
Conditions: Table 2, PLK1 IC50; class symbols; read-out: PLK1 IC50

PLK1, sequence (P53350 whole entry): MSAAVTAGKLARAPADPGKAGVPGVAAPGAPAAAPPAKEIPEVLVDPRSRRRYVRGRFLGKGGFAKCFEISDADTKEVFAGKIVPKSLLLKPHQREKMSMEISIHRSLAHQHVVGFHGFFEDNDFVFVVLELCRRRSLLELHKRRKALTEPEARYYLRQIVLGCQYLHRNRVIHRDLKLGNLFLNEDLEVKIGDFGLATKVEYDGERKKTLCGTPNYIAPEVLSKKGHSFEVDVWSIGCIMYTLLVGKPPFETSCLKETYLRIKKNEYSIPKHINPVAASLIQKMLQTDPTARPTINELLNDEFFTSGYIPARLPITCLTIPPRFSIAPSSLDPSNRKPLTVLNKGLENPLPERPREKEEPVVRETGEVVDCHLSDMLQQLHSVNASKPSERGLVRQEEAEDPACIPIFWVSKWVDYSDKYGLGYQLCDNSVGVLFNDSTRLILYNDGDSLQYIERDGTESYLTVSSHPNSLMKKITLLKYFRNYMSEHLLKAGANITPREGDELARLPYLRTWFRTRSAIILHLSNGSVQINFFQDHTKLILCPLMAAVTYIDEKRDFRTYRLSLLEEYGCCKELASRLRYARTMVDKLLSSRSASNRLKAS

`COc1cc(C(=O)NCCO)ccc1Nc1ncc2c(n1)N(C1CCCC1)CC1(CC1)C(=O)N2C` [compound 188, 4-(9-Cyclopentyl-5-methyl-6-oxo-6,7,8,9-tetrahydro-5H-spiro[pyrimido[4,5-b][1,4]diazepin-3,1′-cyclopropane]-2-ylamino)-N-(2-hydroxy-ethyl)-3-methoxy-benzamide] and `COc1cc(C(=O)NCCOCCO)ccc1Nc1ncc2c(n1)N(C1CCCC1)CC1(CC1)C(=O)N2C` [compound 189, 4-(9-Cyclopentyl-5-methyl-6-oxo-6,7,8,9-tetrahydro-5H-spiro[pyrimido[4,5-b][1,4]diazepin-3,1′-cyclopropane]-2-ylamino)-N-[2-(2-hydroxy-ethoxy)-ethyl]-3-methoxy-benzamide] cannot be ordered by IC50: less than 100 nM for the first, less than 100 nM for the second.

`CONC(=O)c1ccc(Nc2ncc3c(n2)N(C2CCCC2)CC2(CC2)C(=O)N3C)c(OC)c1` [compound 190, 4-(9-Cyclopentyl-5-methyl-6-oxo-6,7,8,9-tetrahydro-5H-spiro[pyrimido[4,5-b][1,4]diazepin-3,1′-cyclopropane]-2-ylamino)-3,N-dimethoxy-benzamide] and `CCN(CC)CCNC(=O)c1ccc(Nc2ncc3c(n2)N(C2CCCC2)CC2(CCC2)C(=O)N3C)c(OC)c1` [compound 219, 4-(9-Cyclopentyl-5-methyl-6-oxo-6,7,8,9-tetrahydro-5H-spiro[pyrimido[4,5-b][1,4]diazepin-3,1′-cyclobutane]-2-ylamino)-N-(2-diethylamino-ethyl)-3-methoxy-benzamide] cannot be ordered by IC50: less than 100 nM for the first, less than 100 nM for the second.

`CN1C(=O)CCN(C2CCCC2)c2nc(NC(=O)c3ccccc3)ncc21` [compound 193, N-(9-Cyclopentyl-5-methyl-6-oxo-6,7,8,9-tetrahydro-5H-pyrimido[4,5-b][1,4]diazepin-2-yl)-benzamide] and `COc1cc(C(=O)NCc2cccn2C)ccc1Nc1ncc2c(n1)N(C1CCCC1)CCC(=O)N2C` [compound 205, 4-(9-Cyclopentyl-5-methyl-6-oxo-6,7,8,9-tetrahydro-5H-pyrimido[4,5-b][1,4]diazepin-2-ylamino)-3-methoxy-N-(1-methyl-1H-pyrrol-2-ylmethyl)-benzamide] cannot be ordered by IC50: less than 10000 nM for the first, less than 100 nM for the second.

`COc1cc(C(=O)NCC2CCN(C)CC2)ccc1Nc1ncc2c(n1)N(C1CCCC1)CC(C)(C)C(=O)N2C` [compound 196] and `COCCNC(=O)c1ccc(Nc2ncc3c(n2)N(C2CCCC2)CC(C)(C)C(=O)N3C)c(OC)c1` [compound 198, 4-(9-Cyclopentyl-5,7,7-trimethyl-6-oxo-6,7,8,9-tetrahydro-5H-pyrimido[4,5-b][1,4]diazepin-2-ylamino)-3-methoxy-N-(2-methoxy-ethyl)-benzamide] cannot be ordered by IC50: less than 100 nM for the first, less than 1000 nM for the second.

`COc1cc(C(=O)NC2CCN(Cc3ccccc3)CC2)ccc1Nc1ncc2c(n1)N(C1CCCC1)CC(C)(C)C(=O)N2C` [compound 197, N-(1-Benzyl-piperidin-4-yl)-4-(9-cyclopentyl-5,7,7-trimethyl-6-oxo-6,7,8,9-tetrahydro-5H-pyrimido[4,5-b][1,4]diazepin-2-ylamino)-3-methoxy-benzamide] and `COc1cc(C(=O)NC2CCN(Cc3ccccc3)CC2)ccc1Nc1ncc2c(n1)N(C1CCCC1)CC1(CCC1)C(=O)N2C` [compound 217, 4-(9-Cyclopentyl-5-methyl-6-oxo-6,7,8,9-tetrahydro-5H-spiro[pyrimido[4,5-b][1,4]diazepin-3,1′-cyclobutane]-2-ylamino)-3-methoxy-N-(1-benzylpiperidin-4-yl)-benzamide] cannot be ordered by IC50: less than 100 nM for the first, less than 1000 nM for the second.

`COc1cc(C(=O)NCc2ccncc2)ccc1Nc1ncc2c(n1)N(C1CCCC1)CC(C)(C)C(=O)N2C` [compound 199, 4-(9-Cyclopentyl-5,7,7-trimethyl-6-oxo-6,7,8,9-tetrahydro-5H-pyrimido[4,5-b][1,4]diazepin-2-ylamino)-3-methoxy-N-pyridin-4-yl-ylmethyl-benzamide] and `COc1cc(C(=O)NCc2ccco2)ccc1Nc1ncc2c(n1)N(C1CCCC1)CC(C)(C)C(=O)N2C` [compound 201, 4-(9-Cyclopentyl-5,7,7-trimethyl-6-oxo-6,7,8,9-tetrahydro-5H-pyrimido[4,5-b][1,4]diazepin-2-ylamino)-N-furan-2-ylmethyl-3-methoxy-benzamide] cannot be ordered by IC50: less than 100 nM for the first, less than 100 nM for the second.

`COc1cc(C(=O)NCCc2c[nH]cn2)ccc1Nc1ncc2c(n1)N(C1CCCC1)CC(C)(C)C(=O)N2C` [compound 200, 4-(9-Cyclopentyl-5,7,7-trimethyl-6-oxo-6,7,8,9-tetrahydro-5H-pyrimido[4,5-b][1,4]diazepin-2-ylamino)-N-[2-(1H-imidazol-4-yl)-ethyl]-3-methoxy-benzamide] and `COc1cc(C(=O)NCc2ccco2)ccc1Nc1ncc2c(n1)N(C1CCCC1)CC1(CCC1)C(=O)N2C` [compound 222, 4-(9-Cyclopentyl-5-methyl-6-oxo-6,7,8,9-tetrahydro-5H-spiro[pyrimido[4,5-b][1,4]diazepin-3,1′-cyclobutane]-2-ylamino)-N-furan-2-ylmethyl-3-methoxy-benzamide] cannot be ordered by IC50: less than 100 nM for the first, less than 1000 nM for the second.

`COc1cc(C(=O)NCC2CCCCN2C)ccc1Nc1ncc2c(n1)N(C1CCCC1)CCC(=O)N2C` (stereo not shown) [compound 202, 4-(9-Cyclopentyl-5-methyl-6-oxo-6,7,8,9-tetrahydro-5H-pyrimido[4,5-b][1,4]diazepin-2-ylamino)-3-methoxy-N-(1-methyl-piperidin-2-ylmethyl)-benzamide] and `COc1cc(C(=O)NC2CCCC2)ccc1Nc1ncc2c(n1)N(C1CCCC1)CCC(=O)N2C` [compound 204, N-Cyclopentyl-4-(9-cyclopentyl-5-methyl-6-oxo-6,7,8,9-tetrahydro-5H-pyrimido[4,5-b][1,4]diazepin-2-ylamino)-3-methoxy-benzamide] cannot be ordered by IC50: less than 100 nM for the first, less than 100 nM for the second.

`COc1cc(C(=O)NCCN2CCOCC2)ccc1Nc1ncc2c(n1)N(C1CCCC1)CCC(=O)N2C` [compound 203, 4-(9-Cyclopentyl-5-methyl-6-oxo-6,7,8,9-tetrahydro-5H-pyrimido[4,5-b][1,4]diazepin-2-ylamino)-3-methoxy-N-(2-morpholin-4-yl-ethyl)-benzamide] and `COc1cc(C(=O)NC2CCN(C(C)=O)CC2)ccc1Nc1ncc2c(n1)N(C1CCCC1)CCC(=O)N2C` [compound 210, N-(1-Acetyl-piperidin-4-yl)-4-(9-cyclopentyl-5-methyl-6-oxo-6,7,8,9-tetrahydro-5H-pyrimido[4,5-b][1,4]diazepin-2-ylamino)-3-methoxy-benzamide] cannot be ordered by IC50: less than 1000 nM for the first, less than 1000 nM for the second.

`COc1cc(C(=O)NC2CCNCC2)ccc1Nc1ncc2c(n1)N(C1CCCC1)CCC(=O)N2C` [compound 206, 4-(9-Cyclopentyl-5-methyl-6-oxo-6,7,8,9-tetrahydro-5H-pyrimido[4,5-b][1,4]diazepin-2-ylamino)-3-methoxy-N-piperidin-4-yl-benzamide] and `COc1cc(C(=O)NC2CCN(S(C)(=O)=O)CC2)ccc1Nc1ncc2c(n1)N(C1CCCC1)CCC(=O)N2C` [compound 209, 4-(9-Cyclopentyl-5-methyl-6-oxo-6,7,8,9-tetrahydro-5H-pyrimido[4,5-b][1,4]diazepin-2-ylamino)-N-(1-methanesulfonyl-piperidin-4-yl)-3-methoxy-benzamide] cannot be ordered by IC50: less than 100 nM for the first, less than 1000 nM for the second.

`COc1cc(C(=O)NC2CCN(C)CC2)ccc1Nc1ncc2c(n1)N(C1CC1)CCC(=O)N2C` [compound 207, 4-(9-Cyclopropyl-5-methyl-6-oxo-6,7,8,9-tetrahydro-5H-pyrimido[4,5-b][1,4]diazepin-2-ylamino)-3-methoxy-N-(1-methyl-piperidin-4-yl)-benzamide] and `CN1CCC(NC(=O)c2ccc(Nc3ncc4c(n3)N(C3CCCC3)CCC(=O)N4C)c(Cl)c2)CC1` [compound 214, 3-Chloro-4-(9-cyclopentyl-5-methyl-6-oxo-6,7,8,9-tetrahydro-5H-pyrimido[4,5-b][1,4]diazepin-2-ylamino)-N-(1-methyl-piperidin-4-yl)-benzamide] cannot be ordered by IC50: less than 10000 nM for the first, less than 100 nM for the second.

`COc1cc(C(=O)NC2CCN(C)CC2)ccc1Nc1ncc2c(n1)N(CCO)CCC(=O)N2C` [compound 208, 4-[9-(2-Hydroxy-ethyl)-5-methyl-6-oxo-6,7,8,9-tetrahydro-5H-pyrimido[4,5-b][1,4]diazepin-2-ylamino]-3-methoxy-N-(1-methyl-piperidin-4-yl)-benzamide] and `CNC(=O)CCN1CCC(=O)N(C)c2cnc(Nc3ccc(C(=O)NC4CCN(C)CC4)cc3OC)nc21` [compound 224, 3-Methoxy-4-[5-methyl-9-(2-methylcarbamoyl-ethyl)-6-oxo-6,7,8,9-tetrahydro-5H-pyrimido[4,5-b][1,4]diazepin-2-ylamino]-N-(1-methyl-piperidin-4-yl)-benzamide] cannot be ordered by IC50: less than 1000 nM for the first, less than 1000 nM for the second.

`CCOC(=O)CN1CCC(NC(=O)c2ccc(Nc3ncc4c(n3)N(C3CCCC3)CCC(=O)N4C)c(OC)c2)CC1` [compound 211, {4-[4-(9-Cyclopentyl-5-methyl-6-oxo-6,7,8,9-tetrahydro-5H-pyrimido[4,5-b][1,4]diazepin-2-ylamino)-3-methoxy-benzoylamino]-piperidin-1-yl}-acetic acid ethyl ester] and `COc1cc(C(=O)NC2CCN(C(=O)c3ccccc3)CC2)ccc1Nc1ncc2c(n1)N(C1CCCC1)CCC(=O)N2C` [compound 212, N-(1-Benzoyl-piperidin-4-yl)-4-(9-cyclopentyl-5-methyl-6-oxo-6,7,8,9-tetrahydro-5H-pyrimido[4,5-b][1,4]diazepin-2-ylamino)-3-methoxy-benzamide] cannot be ordered by IC50: less than 1000 nM for the first, less than 1000 nM for the second.

`CN1CCC(NC(=O)c2ccc(Nc3ncc4c(n3)N(C3CCCC3)CCC(=O)N4C)c(OC(F)(F)F)c2)CC1` [compound 216, 4-(9-Cyclopentyl-5-methyl-6-oxo-6,7,8,9-tefrahydro-5H-pyrimido[4,5-b][1,4]diazepin-2-ylamino)-N-(1-methyl-piperidin-4-yl)-3-trifluoromethoxy-benzamide] and `COc1cc(C(=O)NC2CCN(C)CC2)ccc1Nc1ncc2c(n1)N(CCC(=O)NCCO)CCC(=O)N2C` [compound 223, 4-{9-[2-(2-Hydroxy-ethylcarbamoyl)-ethyl]-5-methyl-6-oxo-6,7,8,9-tetrahydro-5H-pyrimido[4,5-b][1,4]diazepin-2-ylamino}-3-methoxy-N-(1-methyl-piperidin-4-yl)-benzamide] cannot be ordered by IC50: less than 1000 nM for the first, less than 10000 nM for the second.
